Read-outs that look alike come from different tables or passages of the source.
Legend:
[1] = tested on: Ro 4-1284-induced hypothermia; experiment: Antagonism to Ro 4-1284-induced hypothermia; format: in vivo; settings: male mice, Ro 4-1284 20 mg/kg i.p.; for ED50: Mus musculus, ip
Protocol: Another assay utilized to evaluate antidepressant activity is testing for the antagonism to Ro 4-1284*--induced hypothermia. (*Niemegeers, Carlos, J. E. "Antagonism of Reserpine--Like Activity", edited by S. Fielding and Lal, published by Futura, pg. 73-98.) In this test, groups of male mice are weighed and housed individually in wire mesh cages. The rectal temperature of each mouse is recorded and the test compound or vehicle is then administered. […] Mice are then placed in a cold room (36° F.) for 30 minutes, and then returned to room temperature for 30 minutes. At this time (60 minutes after Ro 4-1284 administration) the rectal temperature of each mouse is again recorded. […] The final temperatures of control groups of ten Ro 4-1284-treated mice from a number of experiments are combined to form an "historic control" of 100 mice. This control is updated periodically by replacement of the oldest data.

reserpine-induced ptosis = experiment: Prevention of reserpine-induced ptosis in mice; format: in vivo; settings: Mus musculus, iv, reserpine 2 mg/kg i.v.
Protocol: In this assay, test groups of weighed mice are housed individually in wire mesh cages and administered test compound or vehicle. At a selected time thereafter, reserpine is administered as a 0.2 mg/ml solution in dilute acetic acid at a dose of 2 mg/kg intravenously into a tail vein. In each assay the animals are examined individually in a Plexiglas® cylinder 90 minutes later. Prevention or delay in ptosis is considered significant if the average closure of both eyes is less than 50% after observing for 30 seconds.

LD50 = settings: in vivo; Table I; species and route not given
From the text: The results of testing a number of compounds of formula I for the effects summarized above, as well as their LD50, are summarized in Table I.

[2] = tested on: depression; neurodegeneration; settings: prior art compound; cited from earlier work
[3] = Metabolite identification in the urine of test animals
[4] = Table I, two determinations listed separately where marked *, read-out: Ro 4-1284 Induced Hypothermia ED50
[5] = Table I, pre-treatment time and route of test compound not given, read-out: Reserpine-Induced Ptosis ED50
[6] = 1 h, 60 minute pre-treatment time, i.p., read-out: ED50 for antagonism of Ro 4-1284-induced hypothermia
[7] = 1 h, 60 minute pre-treatment time, read-out: ED50 for prevention of reserpine-induced ptosis

SMILES | ED50 [1, 4] [mg/kg] | ED50 (reserpine-induced ptosis; [5]) [mg/kg] | LD50 (LD50) [mg/kg] | ED50 [1, 6] [mg/kg] | further results
Cn1c[n+](C)nc1-c1c(F)cccc1F [2,6-F2 --] | 0.58 | 5.34 | 100 to 200 |  | 
COc1ccccc1-c1n[n+](C)cn1C [2-CH3 O--] | > 3.12 | > 12.5 | 50 to 100 |  | 
COc1c(F)cccc1-c1n[n+](C)cn1C [3-F-2-CH3 O--] | 2 | 1.31 | 100 to 200 |  | 
CC(Cc1ccccc1)NN (stereo not drawn) [catron, reference compound] |  |  |  | 0.7 | 
Cn1c[n+](C)nc1-c1ccc(Br)cc1 [Rn 4-Br--] | 0.81 | 0.23 | 200 to 400 |  | 
CN(C)CCCN1c2ccccc2CCc2ccccc21 [imipramine, reference compound] |  |  |  | 1.8 | ED50 (reserpine-induced ptosis; [7]): 4.89 mg/kg
Cn1c[n+](C)nc1-c1cccc(F)c1 [Rn 3-F--, 3-(3-Fluorophenyl)-1,4-dimethyl-1,2,4-triazolium hydrosulfate] | 0.34 | 0.19 | 200 to 400 | 0.34 | 
Cn1nc(-c2cccc(F)c2)n(C)c1=S [5-(3-fluorophenyl)-2,4-dimethyl-3H-1,2,4-triazole-3-thione] |  |  |  |  | known antidepressant and neuroprotective activity [2]: antidepressant activity as well as activity in tests indicative of protection from neurodegeneration
Cn1c[n+](C)nc1-c1ccc(Cl)cc1 [Rn 4-Cl--, 3-(4-chlorophenyl)-1,4-dimethyl-1,2,4-triazolium hydrosulfate] | 0.51 | 0.09 | 100 to 200 |  | ED50 (reserpine-induced ptosis; [7]): 0.09 mg/kg
Cn1c[n+](C)nc1-c1cccc(F)c1 [3-(3-fluorophenyl)-1,4-dimethyl-1,2,4-triazolium ion] |  |  |  |  | urinary metabolite of 5-(3-fluorophenyl)-2,4-dimethyl-3H-1,2,4-triazole-3-thione [3]: identified in the urine of test animals as a metabolite
Cn1c[n+](C)nc1-c1ccccc1F [Rn 2-F--] | 0.74 | 0.28 | 100 to 200 |  | Ro 4-1284 Induced Hypothermia ED50 ([1]; Table I, two determinations listed separately where marked *, 20 mg/kg): 0.58 mg/kg
CNCCCN1c2ccccc2CCc2ccccc21 [desipramine, reference compound] |  |  |  | 0.1 | 
Cn1c[n+](C)nc1-c1ccc(I)cc1 [Rn 4-I--] | > 6.25 | 2.82 | 100 to 200 |  | 
